Species on record: Rattus norvegicus
Assay: DrugMatrix - Regimen: Daily Repeat
Format: toxicity, organism-based, Sprague-Dawley
Design: regimen Daily Repeat, gender Male, age 6-8 weeks
Details: in vivo, iv, vehicle 100 % SALINE; for ABSOLUTE BASOPHIL / ABSOLUTE EOSINOPHIL / ABSOLUTE LYMPHOCYTE / ABSOLUTE MONOCYTE / ABSOLUTE SEGMENTED NEUTROPHIL / BASOPHIL / EOSINOPHIL / ERYTHROCYTE COUNT / HEMATOCRIT / HEMOGLOBIN / LEUKOCYTE COUNT / LYMPHOCYTE / MEAN CORPUSCULAR HEMOGLOBIN / MEAN CORPUSCULAR HEMOGLOBIN CONCENTRATION / MEAN CORPUSCULAR VOLUME / MONOCYTE / NEUTROPHIL / NUCLEATED RED BLOOD CELLS / PLATELET COUNT: tissue Blood; for ALANINE AMINOTRANSFERASE / ALBUMIN / ALKALINE PHOSPHATASE / ASPARTATE AMINOTRANSFERASE / BLOOD UREA NITROGEN / CARBON DIOXIDE / CHLORIDE / CHOLESTEROL / CREATINE PHOSPHOKINASE / CREATININE / GLUCOSE / LACTATE DEHYDROGENASE / LIPASE / PHOSPHORUS / POTASSIUM / SODIUM / TOTAL BILIRUBIN / TOTAL PROTEIN / URIC ACID: tissue Plasma
[1] = 200 mg/kg, 120 h, dose level Low, time 5 day
[2] = 800 mg/kg, 72 h, dose level High, time 3 day
[3] = 800 mg/kg, 120 h, dose level High, time 5 day

CC1(C)S[C@@H]2[C@H](NC(=O)[C@H](NC(=O)N3CCNC3=O)c3ccccc3)C(=O)N2[C@H]1C(=O)O [AZLOCILLIN]
ABSOLUTE BASOPHIL [1]: 0 CELLS/uL
ABSOLUTE EOSINOPHIL [1]: 0 CELLS/uL
ABSOLUTE LYMPHOCYTE [1]: 10606.67 CELLS/uL
ABSOLUTE MONOCYTE [1]: 46.67 CELLS/uL
ABSOLUTE SEGMENTED NEUTROPHIL [1]: 980 CELLS/uL
BASOPHIL [1]: 0%
EOSINOPHIL [1]: 0%
ERYTHROCYTE COUNT [1]: 5.98 x10E6/uL
HEMATOCRIT [1]: 35.9%
HEMOGLOBIN [1]: 14.17 G/DL
LEUKOCYTE COUNT [1]: 11.63 x10E3/uL
LYMPHOCYTE [1]: 91.33%
MEAN CORPUSCULAR HEMOGLOBIN [1]: 23.7 pg
MEAN CORPUSCULAR HEMOGLOBIN CONCENTRATION [1]: 39.5 G/DL
MEAN CORPUSCULAR VOLUME [1]: 60.07 fL
MONOCYTE [1]: 0.33%
NEUTROPHIL [1]: 8.33%
NUCLEATED RED BLOOD CELLS [1]: 0.33 /100WBC
PLATELET COUNT [1]: 1262 x10E3/uL
ALANINE AMINOTRANSFERASE [1]: 76 u/L
ALBUMIN [1]: 4.17 G/DL
ALKALINE PHOSPHATASE [1]: 302.33 u/L
ASPARTATE AMINOTRANSFERASE [1]: 91.67 u/L
BLOOD UREA NITROGEN [1]: 17.67 mg/dL
CARBON DIOXIDE [1]: 25.67 mmol/L
CHLORIDE [1]: 101 MEQ/L
CHOLESTEROL [1]: 73 mg/dL
CREATINE PHOSPHOKINASE [1]: 333.33 u/L
CREATININE [1]: 0.19 mg/dL
GLUCOSE [1]: 172.67 mg/dL
LACTATE DEHYDROGENASE [1]: 301 u/L
LIPASE [1]: 9.33 u/L
PHOSPHORUS [1]: 11.1 mg/dL
POTASSIUM [1]: 5.74 MEQ/L
SODIUM [1]: 144.37 MEQ/L
TOTAL BILIRUBIN [1]: 0.13 mg/dL
TOTAL PROTEIN [1]: 6.33 G/DL
URIC ACID [1]: 1.6 mg/dL
ABSOLUTE BASOPHIL [2]: 0 CELLS/uL
ABSOLUTE EOSINOPHIL [2]: 64.67 CELLS/uL
ABSOLUTE LYMPHOCYTE [2]: 11014.33 CELLS/uL
ABSOLUTE MONOCYTE [2]: 68.67 CELLS/uL
ABSOLUTE SEGMENTED NEUTROPHIL [2]: 1119 CELLS/uL
BASOPHIL [2]: 0%
EOSINOPHIL [2]: 0.33%
ERYTHROCYTE COUNT [2]: 5.5 x10E6/uL
HEMATOCRIT [2]: 34.53%
HEMOGLOBIN [2]: 13.63 G/DL
LEUKOCYTE COUNT [2]: 12.27 x10E3/uL
LYMPHOCYTE [2]: 90.67%
MEAN CORPUSCULAR HEMOGLOBIN [2]: 24.87 pg
MEAN CORPUSCULAR HEMOGLOBIN CONCENTRATION [2]: 39.5 G/DL
MEAN CORPUSCULAR VOLUME [2]: 62.9 fL
MONOCYTE [2]: 0.67%
NEUTROPHIL [2]: 8.33%
NUCLEATED RED BLOOD CELLS [2]: 0 /100WBC
PLATELET COUNT [2]: 1200 x10E3/uL
ALANINE AMINOTRANSFERASE [2]: 47.33 u/L
ALBUMIN [2]: 4.13 G/DL
ALKALINE PHOSPHATASE [2]: 350 u/L
ASPARTATE AMINOTRANSFERASE [2]: 79.33 u/L
BLOOD UREA NITROGEN [2]: 15.67 mg/dL
CARBON DIOXIDE [2]: 32.67 mmol/L
CHLORIDE [2]: 98.33 MEQ/L
CHOLESTEROL [2]: 83 mg/dL
CREATINE PHOSPHOKINASE [2]: 313.33 u/L
CREATININE [2]: 0.15 mg/dL
GLUCOSE [2]: 135.67 mg/dL
LACTATE DEHYDROGENASE [2]: 118 u/L
LIPASE [2]: 9.67 u/L
PHOSPHORUS [2]: 10.5 mg/dL
POTASSIUM [2]: 6.4 MEQ/L
SODIUM [2]: 143.1 MEQ/L
TOTAL BILIRUBIN [2]: 0.23 mg/dL
TOTAL PROTEIN [2]: 5.9 G/DL
URIC ACID [2]: 1.33 mg/dL
ABSOLUTE BASOPHIL [3]: 0 CELLS/uL
ABSOLUTE EOSINOPHIL [3]: 0 CELLS/uL
ABSOLUTE LYMPHOCYTE [3]: 11750 CELLS/uL
ABSOLUTE MONOCYTE [3]: 375 CELLS/uL
ABSOLUTE SEGMENTED NEUTROPHIL [3]: 375 CELLS/uL
BASOPHIL [3]: 0%
EOSINOPHIL [3]: 0%
ERYTHROCYTE COUNT [3]: 6.36 x10E6/uL
HEMATOCRIT [3]: 36.8%
HEMOGLOBIN [3]: 14.2 G/DL
LEUKOCYTE COUNT [3]: 12.5 x10E3/uL
LYMPHOCYTE [3]: 94%
MEAN CORPUSCULAR HEMOGLOBIN [3]: 22.3 pg
MEAN CORPUSCULAR HEMOGLOBIN CONCENTRATION [3]: 38.6 G/DL
MEAN CORPUSCULAR VOLUME [3]: 57.9 fL
MONOCYTE [3]: 3%
NEUTROPHIL [3]: 3%
NUCLEATED RED BLOOD CELLS [3]: 0 /100WBC
PLATELET COUNT [3]: 1139 x10E3/uL
ALANINE AMINOTRANSFERASE [3]: 42 u/L
ALBUMIN [3]: 3.7 G/DL
ALKALINE PHOSPHATASE [3]: 225 u/L
ASPARTATE AMINOTRANSFERASE [3]: 68 u/L
BLOOD UREA NITROGEN [3]: 22 mg/dL
CARBON DIOXIDE [3]: 25 mmol/L
CHLORIDE [3]: 102 MEQ/L
CHOLESTEROL [3]: 82 mg/dL
CREATINE PHOSPHOKINASE [3]: 168 u/L
CREATININE [3]: 0.27 mg/dL
GLUCOSE [3]: 198 mg/dL
LACTATE DEHYDROGENASE [3]: 104 u/L
LIPASE [3]: 9 u/L
PHOSPHORUS [3]: 10.1 mg/dL
POTASSIUM [3]: 5.6 MEQ/L
SODIUM [3]: 144.4 MEQ/L
TOTAL BILIRUBIN [3]: 0.2 mg/dL
TOTAL PROTEIN [3]: 6.1 G/DL
URIC ACID [3]: 2.2 mg/dL
